This passage reports inhibition and Reduction results from ChEMBL document CHEMBL1133429, “Resistance-modifying agents. Part 7: 2,6-disubstituted-4,8-dibenzylaminopyrimido[5,4-d]pyrimidines that inhibit nucleoside transport in the presence of alpha1-acid glycoprotein (AGP)” (2000).

Assay [1] relates to L1210. Kind of assay: Inhibition of [3H]thymidine uptake into L1210 cells at a concentration of 1 uM. In kind it is functional. The note with it: Mus musculus.
In assay [2] the test system is L1210. Kind of assay: Reduction of [3H]thymidine uptake into L1210 cells at a concentration of 1 uM. The assay is classed as functional, Mus musculus.
The subject of assay [3] is L1210. Kind of assay: Compound was tested for inhibition of [3H]thymidine uptake into L1210 cells at a concentration of 10 uM. The assay is classed as functional. To be noted: Mus musculus.

Regarding `COc1ccc(CNc2nc(N(CCO)CCO)nc3c(NCc4ccc(OC)c(OC)c4)nc(N(CCO)CCO)nc23)cc1OC`, the inhibition at 1 µM in assay [1] was found to be 71%. The molecule further had a Reduction in assay [2] of 26%.
In the case of `OCC(O)COc1nc(N2CCCCC2)c2nc(OCC(O)CO)nc(N3CCCCC3)c2n1` (stereo not given), in assay [3], 10 µM produced 37% inhibition. This molecule yielded a Reduction in assay [2] of 22%.
The molecule `OCCN(CCO)c1nc(NCc2ccccc2)c2nc(N(CCO)CCO)nc(NCc3ccccc3)c2n1` yielded an inhibition at 1 µM in assay [1] of 38%. The molecule also yielded a Reduction in assay [2] of 45%.
Consider `COc1ccc(CN(C)c2nc(OCCO)nc3c(N(C)Cc4ccc(OC)cc4)nc(OCCO)nc23)cc1`, for which 1 µM produced 73% inhibition in assay [1]. In assay [2], the Reduction came out at 77%.
Take `COc1ccc(CNc2nc(OCCCO)nc3c(NCc4ccc(OC)cc4)nc(OCCCO)nc23)cc1`: 1 µM produced 66% inhibition in assay [1]. Further, the Reduction in assay [2] worked out at 26%.
Regarding `COc1ccc(CN(C)c2nc(NCC(C)O)nc3c(N(C)Cc4ccc(OC)cc4)nc(NCC(C)O)nc23)cc1` (stereo not given), in assay [1], the inhibition at 1 µM was 39%. For the same molecule, in assay [2], the Reduction is 86%.
Taken in the same sequence, the figures for `COc1ccc(CN(C)c2nc(OCCCO)nc3c(N(C)Cc4ccc(OC)cc4)nc(OCCCO)nc23)cc1` were 69% and 53%.
The molecule `COc1ccc(CNc2nc(OCCO)nc3c(NCc4ccc(OC)cc4)nc(OCCO)nc23)cc1` came in with an inhibition at 1 µM in assay [1] of 40%. The molecule further showed a Reduction in assay [2] of 30%.
In turn, `COc1ccc(CNc2nc(NCC(C)O)nc3c(NCc4ccc(OC)cc4)nc(NCC(C)O)nc23)cc1` (stereo not given) yielded an inhibition at 1 µM in assay [1] of 57%. This molecule also had a Reduction in assay [2] of 45%.
Taken in the same sequence, the figures for `COc1ccc(CNc2nc(NCC(C)O)nc3c(NCc4ccc(OC)c(OC)c4)nc(NCC(C)O)nc23)cc1OC` (stereo not given) were 85% and 14%.
As to `COc1ccc(CNc2nc(N(CCO)CCO)nc3c(NCc4ccc(OC)cc4)nc(N(CCO)CCO)nc23)cc1`, the inhibition at 1 µM in assay [1] was found to be 56%. In addition, the Reduction in assay [2] came out at 18%.
Consider `COc1ccc(CNc2nc(OCCO)nc3c(NCc4ccc(OC)c(OC)c4)nc(OCCO)nc23)cc1OC`, for which, in assay [1], the inhibition at 1 µM was 57%. Moreover, the Reduction in assay [2] is on record as 23%.
Taken in the same sequence, the figures for `COc1ccc(CN(C)c2nc(NCC(C)O)nc3c(N(C)Cc4ccc(OC)c(OC)c4)nc(NCC(C)O)nc23)cc1OC` (stereo not given) were 73% and 22%.
Taken in the same sequence, the figures for `COc1ccc(CN(C)c2nc(N(CCO)CCO)nc3c(N(C)Cc4ccc(OC)cc4)nc(N(CCO)CCO)nc23)cc1` were 75% and 47%.
Taken in the same sequence, the figures for `OCCN(CCO)c1nc(N2CCCCC2)c2nc(N(CCO)CCO)nc(N3CCCCC3)c2n1` [DIPYRIDAMOLE] were 89% and 96%.
